Assay [1] relates to HIF1a protein in H9c2 rat cardiomyocytes. As to the kind of experiment: Cell-based HIF-alpha stabilization assay (inhibition of PHD in cells). As to conditions: 24 hrs compound incubation, HIF1a protein by ELISA; for EC50: Rattus norvegicus, H9c2, 24 h, read-out: Inhibition of PHD in cells (pEC50) (converted). In a few lines:
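Rat H9c2 cardiomyocytes, cultured 24 h, were treated 24 h with an 11-point serial dilution of compound. HIF1a in whole-cell lysates was quantified by ELISA as % of the maximal desferrioxamine response. EC50 came from curve fitting; EC50pos is the concentration reaching 50% of the desferrioxamine maximum.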

Assay [2] addresses PHD2 enzyme (residues 181-417) (Homo sapiens (Human), UniProt Q9GZT9). As to the kind of experiment: Inhibition of PHD enzyme (LC/MS peptide hydroxylation assay). The class given is biochemical. The following applies: PHD2 (residues 181-417) 5 nM, 60 min pre-incubation, -log(IC50), IC50 molar. In a few lines:
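PHD2 (5 nM final) preincubated with inhibitor 60 min at RT in 50 mM HEPES, 50 mM KCl, 0.5 mM TCEP, 2 uM FeCl2, 0.1 mg/ml BSA, pH 7.3. Reaction started with biotin-peptide (1 uM), 2-oxoglutarate (2 uM), ascorbate (1 mM), quenched at 60 min; hydroxylated product by LC/MS, reported as pIC50.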

Sequence of PHD2 enzyme (residues 181-417) (Q9GZT9 181-417): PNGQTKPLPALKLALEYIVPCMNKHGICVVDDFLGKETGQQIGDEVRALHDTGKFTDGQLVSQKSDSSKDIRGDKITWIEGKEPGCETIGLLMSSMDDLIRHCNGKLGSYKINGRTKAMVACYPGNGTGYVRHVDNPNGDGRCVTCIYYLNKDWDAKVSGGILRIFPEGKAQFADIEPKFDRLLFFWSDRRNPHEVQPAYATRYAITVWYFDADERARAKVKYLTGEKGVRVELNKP

Turning to `COCC1CCN(C(=O)c2ccc(-n3ncc(-c4ccc(C#N)cc4C)c3O)nc2)CC1` [Example 248, 4-(5-hydroxy-1-(5-(4-(methoxymethyl)piperidine-1-carbonyl)pyridin-2-yl)-1H-pyrazol-4-yl)-3-methylbenzonitrile], the EC50 in assay [1] was 251 nM. In addition, in assay [2], the “PHD Inhibition (pIC50)” value was found to be 8.3.
The corresponding values for `Cc1cc(-n2ncc(-c3ccc(C#N)cc3)c2O)ncc1C(=O)N[C@H]1CC[C@@H](O)CC1` [Example 278, 6-(4-(4-cyanophenyl)-5-hydroxy-1H-pyrazol-1-yl)-N-((1s,4s)-4-hydroxycyclohexyl)-4-methylnicotinamide] are 3240 nM and 7.05.
For the molecule `CN1CCC(CNC(=O)c2ccc(-n3ncc(-c4ccc(C#N)cc4)c3O)nc2)CC1` [Example 57, 6-(4-(4-cyanophenyl)-5-hydroxy-1H-pyrazol-1-yl)-N-((1-methylpiperidin-4-yl)methyl)nicotinamide], in assay [1], the “Inhibition of PHD in cells (pEC50)” value came to 5.70. Also, in assay [2], the “PHD Inhibition (pIC50)” value is listed as 6.98.
Turning to `COC[C@H]1CCC[C@H]1NC(=O)c1ccc(-n2ncc(-c3ccc(C#N)cc3)c2O)nc1` [Example 110, 6-(4-(4-cyanophenyl)-5-hydroxy-1H-pyrazol-1-yl)-N-((1R,2S)-2-(methoxymethyl)cyclopentyl)nicotinamide], in assay [1], the EC50 is 1230 nM. In addition, the “PHD Inhibition (pIC50)” value in assay [2] was 8.1.
The corresponding values for `Cc1cc(C#N)ccc1-c1cnn(-c2ccc(C(=O)N3CC[C@H](N(C)C)C3)cn2)c1O` [Example 412, (S)-4-(1-(5-(3-(dimethylamino)pyrrolidine-1-carbonyl)pyridin-2-yl)-5-hydroxy-1H-pyrazol-4-yl)-3-methylbenzonitrile] are 282 nM and 8.11.
The like results for `CN(C)CC(C)(C)NC(=O)c1ccc(-n2ncc(-c3ccc(C#N)cc3)c2O)nc1` [Example 109, 6-(4-(4-cyanophenyl)-5-hydroxy-1H-pyrazol-1-yl)-N-(1-(dimethylamino)-2-methylpropan-2-yl)nicotinamide] were, in that order, 1200 nM and 7.7.
The like results for `COCC1(CNC(=O)c2ccc(-n3ncc(-c4ccc(C#N)cc4)c3O)nc2)CC1` [Example 56, 6-(4-(4-cyanophenyl)-5-hydroxy-1H-pyrazol-1-yl)-N-((1-(methoxymethyl)cyclopropyl)methyl)nicotinamide] were, in that order, 1450 nM and 7.12.
Consider `CCN1CCN(C(=O)c2ccc(-n3ncc(-c4cc(F)c(C#N)cc4C)c3O)nc2)[C@@H](C)C1` [Example 433, (S)-4-(1-(5-(4-ethyl-2-methylpiperazine-1-carbonyl)pyridin-2-yl)-5-hydroxy-1H-pyrazol-4-yl)-2-fluoro-5-methylbenzonitrile], for which, in assay [1], the EC50 was 363 nM. Further, the “PHD Inhibition (pIC50)” value in assay [2] turned out to be 8.20.
`Cc1cc(C#N)ccc1-c1cnn(-c2ccc(C(=O)N3C[C@H]4CN(C)C[C@H]4C3)cn2)c1O` [Example 292, 4-(5-hydroxy-1-(5-((3aR,6aS)-5-methyloctahydropyrrolo[3,4-c]pyrrole-2-carbonyl)pyridin-2-yl)-1H-pyrazol-4-yl)-3-methylbenzonitrile]: the EC50 in assay [1] was 407 nM. For the same molecule, the “PHD Inhibition (pIC50)” value in assay [2] is 8.04.
The corresponding values for `CC(C)(C)NC(=O)c1ccc(-n2ncc(-c3ccc(C#N)cc3)c2O)nc1` [Example 202, N-(tert-butyl)-6-(4-(4-cyanophenyl)-5-hydroxy-1H-pyrazol-1-yl)nicotinamide] are 724 nM and 7.23.
The like results for `COC1CCN(C(=O)c2ccc(-n3ncc(-c4ccc(C#N)c(F)c4C)c3O)nc2)CC1` [Example 316, 2-fluoro-4-(5-hydroxy-1-(5-(4-methoxypiperidine-1-carbonyl)pyridin-2-yl)-1H-pyrazol-4-yl)-3-methylbenzonitrile] were, in that order, 1290 nM and 8.31.
The like results for `Cc1cc(C#N)ccc1-c1cnn(-c2ccc(C(=O)N3CCC[C@H](N4CCCC4)C3)cn2)c1O` [Example 381, (S)-4-(5-hydroxy-1-(5-(3-(pyrrolidin-1-yl)piperidine-1-carbonyl)pyridin-2-yl)-1H-pyrazol-4-yl)-3-methylbenzonitrile] were, in that order, 1070 nM and 7.94.
Consider `COCCCNC(=O)c1ccc(-n2ncc(-c3ccc(C#N)cc3C)c2O)nc1` [Example 121, 6-(4-(4-cyano-2-methylphenyl)-5-hydroxy-1H-pyrazol-1-yl)-N-(3-methoxypropyl)nicotinamide], for which, in assay [1], the EC50 was 191 nM. Further, the “PHD Inhibition (pIC50)” value in assay [2] was found to be 7.17.
The like results for `C[C@H]1C[C@@H]1NC(=O)c1ccc(-n2ncc(-c3ccc(C#N)cc3)c2O)nc1` [Example 169, 6-(4-(4-cyanophenyl)-5-hydroxy-1H-pyrazol-1-yl)-N-((1s,2s)-2-methylcyclopropyl)nicotinamide] were, in that order, 891 nM and 7.22.
In the case of `N#Cc1ccc(-c2cnn(-c3ccc(C(=O)NC4CCC(F)(F)CC4)cn3)c2O)cc1` [Example 84, 6-(4-(4-cyanophenyl)-5-hydroxy-1H-pyrazol-1-yl)-N-(4,4-difluorocyclohexyl)nicotinamide], in assay [1], the EC50 was 2240 nM. Further, the “PHD Inhibition (pIC50)” value in assay [2] turned out to be 6.91.
`COCC1(CNC(=O)c2ccc(-n3ncc(-c4ccc(C#N)cc4C)c3O)nc2)CC1` [Example 135, 6-(4-(4-cyano-2-methylphenyl)-5-hydroxy-1H-pyrazol-1-yl)-N-((1-(methoxymethyl)cyclopropyl)methyl)nicotinamide]: in assay [1], the EC50 was 148 nM. For the same molecule, the “PHD Inhibition (pIC50)” value in assay [2] turned out to be 7.15.
The like results for `COCCCNC(=O)c1ccc(-n2ncc(-c3ccc(C#N)cc3F)c2O)nc1` [Example 213, 6-(4-(4-cyano-2-fluorophenyl)-5-hydroxy-1H-pyrazol-1-yl)-N-(3-methoxypropyl)nicotinamide] were, in that order, 380 nM and 7.45.
The corresponding values for `COCCCNC(=O)c1ccc(-n2ncc(-c3cc(C)c(C#N)cc3C)c2O)nc1` [Example 403, 6-(4-(4-cyano-2,5-dimethylphenyl)-5-hydroxy-1H-pyrazol-1-yl)-N-(3-methoxypropyl)nicotinamide] are 1860 nM and 7.78.
The corresponding values for `O=C(NCc1ccccc1)c1ccc(-n2ncc(-n3ccc(=O)cc3)c2O)nc1` [Example 191, N-benzyl-6-(5-hydroxy-4-(4-oxopyridin-1(4H)-yl)-1H-pyrazol-1-yl)nicotinamide] are 6760 nM and 7.19.
As for `Cc1c(-c2cnn(-c3ccc(C(=O)N4CCN(C)[C@@H](C)C4)cn3)c2O)ccc(C#N)c1F` [Example 329, (S)-4-(1-(5-(3,4-dimethylpiperazine-1-carbonyl)pyridin-2-yl)-5-hydroxy-1H-pyrazol-4-yl)-2-fluoro-3-methylbenzonitrile], the EC50 in assay [1] was 331 nM. Further, the “PHD Inhibition (pIC50)” value in assay [2] turned out to be 8.50.
Turning to `Cc1cc(C#N)ccc1-c1cnn(-c2ccc(C(=O)NC3CCC3)cn2)c1O` [Example 134, 6-(4-(4-cyano-2-methylphenyl)-5-hydroxy-1H-pyrazol-1-yl)-N-cyclobutylnicotinamide], the EC50 in assay [1] is 339 nM. Also, in assay [2], the “PHD Inhibition (pIC50)” value is 7.21.
The like results for `Cc1cc(C#N)ccc1-c1cnn(-c2ccc(C(=O)N[C@H]3CCOC3)cn2)c1O` [Example 120, (S)-6-(4-(4-cyano-2-methylphenyl)-5-hydroxy-1H-pyrazol-1-yl)-N-(tetrahydrofuran-3-yl)nicotinamide] were, in that order, 102 nM and 7.2.
For the molecule `Cc1c(-c2cnn(-c3ccc(C(=O)N4CCC[C@@H](N(C)C5CC5)C4)cn3)c2O)ccc(C#N)c1F` [Example 331, (R)-4-(1-(5-(3-(cyclopropyl(methyl)amino)piperidine-1-carbonyl)pyridin-2-yl)-5-hydroxy-1H-pyrazol-4-yl)-2-fluoro-3-methylbenzonitrile], the EC50 in assay [1] was 813 nM. Further, in assay [2], the “PHD Inhibition (pIC50)” value was 8.33.
For the molecule `CCN(C)CC1CCN(C(=O)c2ccc(-n3ncc(-c4ccc(C#N)cc4C)c3O)nc2)C1` (racemic) [Example 295, (+/−)-4-(1-(5-(3-((ethyl(methyl)amino)methyl)pyrrolidine-1-carbonyl)pyridin-2-yl)-5-hydroxy-1H-pyrazol-4-yl)-3-methylbenzonitrile], the EC50 in assay [1] was 339 nM. For the same molecule, the IC50 in assay [2] (read-out: PHD Inhibition (pIC50) (converted)) is 14.1 nM.
Take `COCC(NC(=O)c1ccc(-n2ncc(-c3ccc(C#N)cc3)c2O)nc1)C(C)C` (stereo not drawn) [Example 156, 6-(4-(4-cyanophenyl)-5-hydroxy-1H-pyrazol-1-yl)-N-(1-methoxy-3-methylbutan-2-yl)nicotinamide]: the EC50 in assay [1] is 891 nM. Besides, in assay [2], the “PHD Inhibition (pIC50)” value was found to be 7.47.
The corresponding values for `Cc1cc(C#N)ccc1-c1cnn(-c2ccc(C(=O)N3CC(N4CCCCC4)C3)cn2)c1O` [Example 344, 4-(5-hydroxy-1-(5-(3-(piperidin-1-yl)azetidine-1-carbonyl)pyridin-2-yl)-1H-pyrazol-4-yl)-3-methylbenzonitrile] are 468 nM and 8.17.
Consider `CCOCCCNC(=O)c1ccc(-n2ncc(-c3ccc(C#N)cc3)c2O)nc1` [Example 162, 6-(4-(4-cyanophenyl)-5-hydroxy-1H-pyrazol-1-yl)-N-(3-ethoxypropyl)nicotinamide], for which, in assay [1], the EC50 is 1150 nM. In addition, the “PHD Inhibition (pIC50)” value in assay [2] came to 7.23.
